According to patent US20230113944A1, “COMPOSITIONS AND METHODS FOR THE TREATMENT OF NEURODEGENERATIVE DISEASES” (priority 2020, published 2023):
“And” between values parts separate entries of the source, which are not always exact repeats. Equal values may be shown once. “Also recorded” adds a separate entry of the source.

How the values were obtained:
[1] = Brain pharmacokinetic analysis after SQ dosing
Procedure: Pharmacokinetic (PK) analysis on the leads 8 and 11 to determine brain permeability using wild type mice was performed. The compounds were subcutaneously (SQ) injected at a dose of 20 mg per kg of body weight (mpk). Brain and plasma samples were collected 1, 2, and 4 hours after dosing.

[2] = tested on: Tau P301S (PS19 line) tauopathy mouse model; assay: Rapid in vivo assay: IL1β-induced brain EV release; design: species or system mice
[3] = tested on: HEK293T Tau RD P301S FRET biosensor (tau biosensor) cells; assay: Donor plus Recipient (D+R) tau propagation assay; format: cell-based; details: 20 μM, 48 hrs
Procedure: HEK293T Tau RD P301S FRET biosensor (tau biosensor) cells were grown in Dulbecco's Modified Eagle's medium (DMEM) with high glucose, 10% FBS, and 1% Penicillin-streptomycin at 37° C./5% CO2. The lead inhibitors were tested in functional tau propagation “D+R” (Donors plus Recipients) and EMT (EV-mediated transfer) assays using the tau biosensors. Briefly, tau aggregation in donor cells (D) was induced by transfection of tau biosensor cells with human AD brain derived synaptosomal extracts (35 μg of synaptosomal fraction for 5 million cells in one 10 cm dish); control cells were treated with corresponding amount of transfection reagent lipofectamine 2000. After 24 hr incubation, the cells were trypsinized and plated together with DID-labeled recipient cells (R) in a 1:1 ratio in 96-well plates (15,000 of each cell type per well) for D+R assay or 1.5 million of donor cells per well in 6-well plates for EMT assay. Tested compounds or a corresponding amount of DMSO (0.2%) was added to the cell culture medium, DMEM, which contained 10% of exosome-depleted FBS (ThermoFisher, A2720803). Four technical replicates were used for each experimental condition. The inhibitors were tested at 20 μM concentration. […] Tau seed transfer from donor to recipient cells results in FRET signal generation in the DID-positive recipient cells, which was measured by flow cytometry. Integrated FRET density was calculated in the top 30% of DID-positive cell based on DID signal intensity.
(§1) An Attune NxT Flow Cytometer (Invitrogen) equipped with an autosampler and FRET-compatible laser lines and filter sets was used for FRET signal detection. The FRET (CFP/YFP) signal was excited by a 405 nm laser for CFP excitation and detected in the YFP image detection channel. Flow cytometry data was analyzed using FCS Express version 5 software (DeNovo Software California, USA). Integrated FRET density was calculated as a product of percentage FRET positive cells and median of fluorescent intensity of the FRET positive cells as previously established.

[4] = tested on: HEK293T Tau RD P301S FRET biosensor (tau biosensor) cells; assay: EV-mediated tau seed transfer (EMT) assay; format: cell-based
Procedure: HEK293T Tau RD P301S FRET biosensor (tau biosensor) cells were grown in Dulbecco's Modified Eagle's medium (DMEM) with high glucose, 10% FBS, and 1% Penicillin-streptomycin at 37° C./5% CO2. The lead inhibitors were tested in functional tau propagation “D+R” (Donors plus Recipients) and EMT (EV-mediated transfer) assays using the tau biosensors. Briefly, tau aggregation in donor cells (D) was induced by transfection of tau biosensor cells with human AD brain derived synaptosomal extracts (35 μg of synaptosomal fraction for 5 million cells in one 10 cm dish); control cells were treated with corresponding amount of transfection reagent lipofectamine 2000. After 24 hr incubation, the cells were trypsinized and plated together with DID-labeled recipient cells (R) in a 1:1 ratio in 96-well plates (15,000 of each cell type per well) for D+R assay or 1.5 million of donor cells per well in 6-well plates for EMT assay. Tested compounds or a corresponding amount of DMSO (0.2%) was added to the cell culture medium, DMEM, which contained 10% of exosome-depleted FBS (ThermoFisher, A2720803). Four technical replicates were used for each experimental condition. The inhibitors were tested at 20 μM concentration. In 48 hours 50 μL of culture medium per well were collected for cell viability test (Cytotox 96 non-radioactive cytotoxicity assay, Promega Corp., Madison, Wis.). The cells in D+R assay were harvested at the 48 hr time point and fixed with 2% paraformaldehyde for flow cytometry analysis according to published protocol. Tau seed transfer from donor to recipient cells results in FRET signal generation in the DID-positive recipient cells, which was measured by flow cytometry. Integrated FRET density was calculated in the top 30% of DID-positive cell based on DID signal intensity.
For the EMT assay, cell culture medium from donor cells growing for 48 hours with the compounds at concentrations of 20 μM or a corresponding amount of DMSO (0.2%), was collected and EVs were purified using the ExoQuick-TC kit (SBI biosciences) according to the manufacturer's instructions. Naïve recipient cells were plated in 96 well plates at a density of 20,000 cells per well in exosome-free medium and transfected with donor cell-derived exosomes at 12 hrs. The recipient cells were harvested 60 hours after transfection and FRET signals were analyzed using flow cytometry.
as §1, with “The FRET (CFP/YFP) signal was excited by a 405 nm laser for CFP excitation and detected in the YFP image detection channel.” left out

[5] = Parallel artificial membrane permeability (IAM column) prediction of CNS permeability; format: in vitro ADME; details: PAMPA, 2 mM
Procedure: To predict the potential for brain permeability, a Regis Technologies analytical column connected to an Agilent HPLC system (Infinity 1260 quaternary pump and multiple wavelength detector; 1200 autosampler) was used. An IAM.PC.DD column was (4.6 mm i.d.×10 cm, particle size 5 μm; pore size 300 Å) conditioned with 20 column volumes of mobile phase or until a stable line was achieved. A mobile phase with a consistent flow rate of 1 mL/min was used comprising 100 mM Na2PO4 (solvent A) and acetonitrile (solvent B); compounds were eluted using a gradient (min/% B: 0/30, 10/60, 11/30, 15/30). Detector settings were 220, 250 and 280 nm and acquisition time was 15 min. The autosampler injected 10 μL of compound at 2 mM final, diluted from 10 mM in DMSO in 70:30 (water:acetonitrile). After elution, compound retention and void volume times were obtained from the chromatogram. The IAM capacity factor: (KIAM) was calculated using the equation: […]
where tr is the retention time of a compound and t0 is the void volume time of the column. To predict CNS permeability, we used the correlation described by the formula below.

Human AChE = biological target: T1, Human AChE (Homo sapiens, UniProt P22303); assay: biochemical; details: IC50 AChE
T1 construct: purchased Sigma
Procedure: This acetylcholinesterase (AChE) assay is based on an Amplex Red assay kit (Thermo Fisher A12217). Human AChE (Sigma) was used. Briefly, 5 μL of compounds at the desired concentration were loaded into wells of a 384-well plate. Then, 5 μl of human AChE (30 mU/mL) was loaded into each well, followed by the addition of 10 μL of the working solution which contains 400 μM Amplex Red reagent, 2 U/mL HRP, 0.2 U/mL choline oxidase, and 100 μM acetylcholine. The reaction was monitored for 60 minutes and read at 530/590 nm. AChE IC50 was determined by plotting AChE activity as a percentage of DMSO control using GraphPad Prism software.

[6] = tested on: HEK293T Tau RD P301S FRET biosensor (tau biosensor) cells; assay: EV-mediated tau seed transfer (EMT) assay; format: cell-based; details: 20 μM
[7] = biological target: human serum albumin (HSA) (Homo sapiens, UniProt P02768); assay: Binding to human serum albumin (HSA); details: for fraction unbound: human, human serum albumin
[8] = tested on: HEK293T Tau RD P301S FRET biosensor cells; assay: Tau biosensor cells seeded with AD brain synaptosomal (P2) extract, FRET signal; format: cell-based; details: 10 μM, imaged after 24 hrs, vs DMSO
Procedure: Brain autopsy samples were obtained from the University of California Irvine, University of Southern California AD Research Centers, and University of California, Los Angeles. Brain tissue was cryopreserved and synaptosomal fractions (P2-fractions, or P2) were prepared as previously described. In order to prepare P2-extracts, aliquots were quickly defrosted at 37° C. and centrifuged at 10,000×g for 10 min at 4° C. to remove P2 from sucrose. After aspirating the supernatant, cold PBS was added to each sample in Ma 1:5 weight/volume ratio. Samples were then sonicated in 10-second intervals three times, incubated on ice for 30 min and centrifuged at 20,000 g for 20 min at 4° C. P2 extracts were collected and stored at −80° C. Tau biosensor cell treatment and analysis. HEK293T Tau RD P301S FRET biosensor cells (tau biosensors) were growing in the Dulbecco's Modified Eagle's medium (DMEM) with higher glucose, 10% FBS, and 1% Penicillin-streptomycin at 37° C./5% CO2. Cells were plated in 10-sm dishes (3 million cells per dish in the regular medium) and grown for 12 hrs. Cells were transduced with pulled synaptosomal (P2) extracts from AD cases using lipofectamine 2000. […]
Cells were imaged after 24 hrs using automated microscope imaging system (Lionheart FX) equipped with 20× objective and CFP-YFP FRET Image filter cube. […] FRET signal was detected using LSRII flow cytometer (BD biosciences). […]

human nSMase2 = biological target: T2, human nSMase2 (Homo sapiens, UniProt Q9NY59); assay: biochemical; format: biochemical; details: IC50 nSMase2
T2 construct: expressed in transfected cells; host or cells: HEK293T
T2 sequence (Q9NY59 1-655): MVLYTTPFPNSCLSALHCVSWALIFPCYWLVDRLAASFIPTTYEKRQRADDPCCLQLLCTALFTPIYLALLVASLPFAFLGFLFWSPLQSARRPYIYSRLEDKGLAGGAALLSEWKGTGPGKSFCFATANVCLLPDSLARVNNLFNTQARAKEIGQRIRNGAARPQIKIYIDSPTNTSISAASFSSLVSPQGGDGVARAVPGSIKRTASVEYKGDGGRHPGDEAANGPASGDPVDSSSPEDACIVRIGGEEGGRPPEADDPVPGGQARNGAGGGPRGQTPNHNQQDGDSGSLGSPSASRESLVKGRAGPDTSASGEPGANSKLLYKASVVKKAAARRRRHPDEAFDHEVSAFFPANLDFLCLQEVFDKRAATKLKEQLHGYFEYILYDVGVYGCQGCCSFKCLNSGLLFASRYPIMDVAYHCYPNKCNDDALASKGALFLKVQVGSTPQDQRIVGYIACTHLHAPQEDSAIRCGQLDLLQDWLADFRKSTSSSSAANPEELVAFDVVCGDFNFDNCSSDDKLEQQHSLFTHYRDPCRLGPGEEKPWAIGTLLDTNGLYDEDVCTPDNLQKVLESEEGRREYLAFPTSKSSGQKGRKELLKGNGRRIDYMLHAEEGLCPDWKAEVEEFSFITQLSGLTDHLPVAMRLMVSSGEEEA
Procedure: To evaluate nSMase2 inhibitory activity of tested compounds, cell lysates from HEK293T cells over-expressing human nSMase2 were used as the source of the nSMase2 enzyme. The Amplex Red Sphingomyelinase activity assay was performed according to previously a described protocol^1. Confluent cells were washed with PBS and harvested with lysis buffer [100 mM Tris-HCl pH 7.5, 100 mM sucrose, 100 μM PMSF, 1× protease inhibitor cocktail] using a cell scraper, and then sonicated 3 times on ice for 10 sec and centrifuged at 10,000×g for 10 min at 4° C. to remove remaining cell debris. An initial screening of a compound library was performed using 50 μM compound concentrations. In secondary testing, selected compounds were analyzed at multiple compound concentrations and plotted as a percentage of DMSO control; dose-response curves were generated to determine IC50s using GraphPad Prism software (GraphPad Software, La Jolla Calif.). […] Activity of the enzyme in the presence of the different concentrations of the inhibitors was plotted against substrate concentration and the maximal rate of the enzymatic reaction (Vmax) and Michaelis constant were calculated using GraphPad Prism.

Sequence of human serum albumin (HSA) (P02768 25-609): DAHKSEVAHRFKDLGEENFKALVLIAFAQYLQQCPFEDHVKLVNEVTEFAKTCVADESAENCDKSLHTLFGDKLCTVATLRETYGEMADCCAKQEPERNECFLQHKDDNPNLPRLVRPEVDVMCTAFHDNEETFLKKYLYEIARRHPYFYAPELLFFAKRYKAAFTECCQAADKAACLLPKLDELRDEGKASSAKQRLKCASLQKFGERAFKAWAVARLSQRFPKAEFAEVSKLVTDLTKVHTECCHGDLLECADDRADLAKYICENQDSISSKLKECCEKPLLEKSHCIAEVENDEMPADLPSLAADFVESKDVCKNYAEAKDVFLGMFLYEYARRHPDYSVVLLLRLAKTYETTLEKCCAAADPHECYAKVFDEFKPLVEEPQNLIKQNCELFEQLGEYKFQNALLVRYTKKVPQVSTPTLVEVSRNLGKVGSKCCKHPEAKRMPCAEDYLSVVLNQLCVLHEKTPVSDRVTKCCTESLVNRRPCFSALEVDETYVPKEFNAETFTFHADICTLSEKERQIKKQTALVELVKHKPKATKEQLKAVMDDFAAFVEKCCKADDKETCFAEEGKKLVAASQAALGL
T1 sequence (P22303 32-614): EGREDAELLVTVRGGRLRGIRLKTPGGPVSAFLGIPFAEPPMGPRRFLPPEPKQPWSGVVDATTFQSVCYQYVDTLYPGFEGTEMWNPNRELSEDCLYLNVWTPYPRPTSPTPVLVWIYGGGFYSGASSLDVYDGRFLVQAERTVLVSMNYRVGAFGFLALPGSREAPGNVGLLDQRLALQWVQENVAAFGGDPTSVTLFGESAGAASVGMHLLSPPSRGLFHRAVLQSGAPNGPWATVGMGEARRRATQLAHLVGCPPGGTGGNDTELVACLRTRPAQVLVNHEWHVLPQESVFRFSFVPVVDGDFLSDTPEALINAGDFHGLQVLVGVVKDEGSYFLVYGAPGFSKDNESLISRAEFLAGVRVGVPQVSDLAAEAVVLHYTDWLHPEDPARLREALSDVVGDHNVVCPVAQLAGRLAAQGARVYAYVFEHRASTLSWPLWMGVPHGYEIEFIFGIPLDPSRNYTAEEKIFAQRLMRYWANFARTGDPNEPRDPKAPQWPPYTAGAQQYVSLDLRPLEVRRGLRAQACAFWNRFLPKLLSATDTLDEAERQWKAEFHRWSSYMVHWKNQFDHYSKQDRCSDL

CN1c2ccc(OC(=O)Nc3ccncc3)cc2[C@]2(C)CCO[C@H]12 [Compound 8]
brain penetration (compound levels in brain tissue, LC-MS/MS) ([1]; mice, 20 mg/kg SQ): penetrated the brain
concentration at 1 h ([1]; mouse, in vivo, 20 mg/kg): 61 ng/g and ~200 nM
time of peak brain levels after SQ dosing ([1]; wild type mice, 20 mg/kg SQ): around one
IL1β-induced tau release by exosomes ([2]; 20 mg/kg SQ): less effective
IL1β-induced brain EV / exosomal release (small EV concentration, TRPS) ([2]; mouse, in vivo, 20 mg/kg): didn't induce the same level of suppression
tau seed transfer from donor to recipient cells, D+R assay [3]: suppress tau propagation; also recorded: significantly suppresses
tau seed transfer from donor to recipient cells, EMT assay ([4]; 20 μM, donor cells 48 hrs): suppress tau propagation; also recorded: significantly suppresses
CNS perm (PAMPA) [5]: 1.9
IC50 (Human AChE): 6 µM
EV size distribution of donor-derived EVs (TRPS) [6]: did not affect
concentrations of exosomal-type small EVs from donor cells [6]: decreased
levels of exosomal markers CD63, CD81, and syntenin-1 in donor EVs ([6]; vs DMSO control): reduced
degree of binding to human serum albumin (HSA) [7]: low degree of binding
fraction unbound [7]: 0.28

CCN(C)C(=O)Oc1cccc([C@H](C)N(C)C)c1 [rivastigmine, reference compound]
EV-mediated transfer from donor to recipient cells ([4]; preliminary experiments, data not shown): may partially suppress

O=c1[nH]c(=S)[nH]c(-c2ccccc2)c1Cc1c(O)ccc2ccccc12 [DDL-112, cambinol]
amount of FRET-positive tau aggregates (microscopy) [8]: visibly decreased

CN1c2ccc(OC(=O)Nc3ccncc3F)cc2[C@]2(C)CCO[C@H]12 [Compound 13]
CNS perm (PAMPA) [5]: 1.3
IC50 (human nSMase2): 0.6 µM
IC50 (Human AChE): > 5 µM
degree of binding to human serum albumin (HSA) [7]: low degree of binding
fraction unbound [7]: 0.35
